Test results taken from patent US20240335395A1, “COMPOSITIONS AND METHODS FOR PREVENTING AND/OR TREATING DISEASE ASSOCIATED WITH IL-23 EXPRESSION” (ALLSPIM, priority 2021, published 2024).

Legend:
[1] = system: IL-23; experiment: IL-23 production (ELISA) in LPS-stimulated THP-1 cells, 2,4-D versus other chalcones, Example 2; assay type: cell-based, human; conditions: LPS-stimulated THP-1
Source text: Molecules tested. Natural 2,4-D, isolated and purified from Chloranthus spicatus (purity HPLC≥98%, Cat. No.: 129742-43-2), was purchased from BOC Science (Shirley, NY). Synthetic 2,4-D (purity HPLC≥98%) was obtained from YIWEI Biotech (Shanghai, China). 2′-hydroxychalcone (2′-HC, purity HPLC≥98%, Cat. No.: 42224-53-3), 4-hydroxychlcone (4-HC, purity HPLC≥98%, Cat. No.: 20426-12-4), 2′,2-dihydroxychalcone (2′,2-DHC, purity HPLC≥98%, Cat. No.: IDF00045_ALDRICH), 2′,3-dihydroxychalcone (2′,3-DHC, purity HPLC≥98%, Cat No.: IDF00047_ALDRICH), 2′,4-dihydroxychalcone (2′,4-DHC, purity HPLC≥98%, Cat. No.: PH011685_ALDRICH), 2′,5′-dihydroxychalcone (2′,5′-DHC, purity HPLC≥98%, No.: IDF00046-1G), and 2′,4′,4-trihydroxychalcone (2′,4′4-THC, purity HPLC≥98%, No.: 38986_SIAL) were purchased from Sigma. 2′,4′-dihydroxychalcone (2′,4′-DHC, purity HPLC≥98%, Cat. No. AB151736) was purchased from abcr GmbH (Karlsruhe, Germany). Isobavachalcone (IBC), 4′-hydroxy-2′6′-dimethoxychalcone (HMC), 2-trifluoromethyl-2′-methoxychalcone (TFM) and Hydroxysafflor yellow A (HYA) were also tested.
Cell culture. THP-1 cells were cultured in RPMI 1640 culture medium (Gibco) supplemented with 10% fetal bovine serum (FBS; Gibco, UK.), 0.05 mM 2-mercaptoethanol, and 1% penicillin/streptomycin. Cells were used in exponential growth phase, with culture medium being replaced with fresh medium 1 day prior to the experiment. The following day, THP-1 cells were plated into 24-well culture plates with a cell density about 800,000 cells/mL and 2 mL per well. 10 ng/mL LPS was used to stimulate the THP-1 cells. RPMI 1640 medium containing 10% FBS and 1% P/S was used as a normal control (NC). 10 mM stock solutions of compounds in DMSO were diluted to 20 μM with complete culture medium just before use. Experiments were performed in quadruplicate.
Enzyme linked immune-sorbent assay (ELISA). At 24 hours, after centrifugation at 300 g for 10 min., 0.5 mL of supernatant was collected and stored at −80° C. until use. IL-23 levels were determined in culture supernatants as described in Example 1.

[2] = system: IL-1β, IL6 and TNFalpha; experiment: Endometriosis mouse model, cytokines in cell-free peritoneal lavage (ELISA); assay type: in vivo; conditions: 50 mg/kg/day, 5 times a week, 6 weeks
Procedure: Experimental design. Balb/C female mice (10 weeks old) were habituated for 3 days to take a jelly containing (group EDT+2,4D) or not (groups No EDT and EDT+Vehicle) the compound. Surgical implantation of endometrial tissue from syngenic female in peritoneum, was performed at day 0 for groups EDT+Vehicle and EDT+2,4D. […] The vehicle or treatment was then given 5 times a week (50 mg/kg/day) during 6 weeks. Mice were then sacrificed and the peritoneal inflammation was assessed. All the details of the protocol are depicted in FIG. 27. Cytokine measurement in cell-free peritoneal lavage. After mice were euthanized, 5 mL of PBS was injected into the peritoneal cavity and the diluted peritoneal fluid containing the cells was then retrieved. […] Cytokine concentration was assessed by ELISA kit in the peritoneal fluid (ThermoFisher, Mouse IL-1β, IL6 and TNFalpha Uncoated ELISA). […] The optical density was read with the Clariostar Plus Microplate Reader (BMG LABTECH), through the Clario software. Concentrations were calculated from a standard curve according to the manufacturer's protocol. Phenotypic study of immune cells from the peritoneal cavity assessed by flow cytometry. The pelleted peritoneal cells were resuspended in PBS-2% FBS and counted. […] All data were collected on LSR Fortessa flow cytometer (BD Bioscience, USA) and analyzed with FlowJo software. […]

Structure (SMILES): COc1cc(O)c(OC)c(O)c1C(=O)/C=C/c1ccccc1 [2,4-D, 2′,4′-dihydroxy-3′,6′-dimethoxychalcone]
- inhibition of IL-23, superiority over remaining compounds [1]: 7,5- to 18 fold
- concentration of IL1-β, IL-6 and TNF-α in peritoneal lavage [2]: tended to normalize
